The term IC50 denotes the concentration needed to halve the response being measured.

Values after ≈ are worked out from the molar mass of the structure shown. Like-named read-outs stand apart in the source and are kept apart here.

Test [1] relates to MDA-MB-231 human breast cancer cells. Nature of the test: In vitro cytotoxicity MTT assay, non-GRP expressing cells. The format is cell-based. Particulars: MDA-MB231 cells; for IC50: Homo sapiens, MDA-MB-231. Here is the method: (§1) Cell culture: PC-3 human prostate and MDA-MB231 human breast carcinoma cells (ATCC, USA) were grown in RPMI 1640 medium (obtained from Gibco BRL, Grand Island, N.Y.) supplemented with 4.5 g/L D-glucose, 25 mM Hepes, 0.11 g/L sodium pyruvate, 1.5 g/L sodiumbicarbonate, 2 mM L-glutamine, 10% heat-inactivated fetal bovine serum (Atlanta Biologicals, USA) and 1% penicillin/streptomycin antibitiotic solution. Cells were cultured in a humidified atmosphere of 95% air and 5% CO2 at 37° C. (Thermo Scientific, USA), with the medium changed every other day. The cells were adherent in monolayers and when confluent were harvested from the cell culture flasks with trypsin—EDTA (Invitrogen) and seeded further apart.
In vitro Cytotoxicity Assay: In vitro cytotoxicity evaluation of NP1-DOX and NP2-DOX with respective controls such as NP1, NP2, free doxorubicin was performed on GRP expressing and non-expressing cancer cells, PC3 and MDA-MB-231, respectively. The cytotoxicity evaluation was performed in triplicates and the protocol was followed as described by the manufacturer. Briefly, 1×10^5 ml^−1 cells at the exponential growth phase were placed in a flat bottom 96-well polystyrene-coated plate and were incubated for 12 hour in a CO2 incubator at 5% CO2 and 37° C. A series of concentrations ranging from 0 to 10 ug/mL (0, 0.31, 0.625, 1.25, 2.5, 5.0 and 10 μg/mL) of NP1-Dox and NP2-Dox was prepared in the medium. Each concentration was added to the plate in quadruplets. After 24 hour incubation, 10 μL per well MTT (as received from the manufacturer, Promega Corporation, USA) was added and kept for 4 hours, and the formazan crystals so formed were dissolved in 100 μL detergent/solubilizing buffer. The plates were kept for 2 hours in dark at 25° C. to dissolve all crystals, and the intensity of developed color was measured by micro plate reader (Epoch, BioTek, USA) operating at 570 nm wavelength. Wells with complete medium, nanoparticles, and MTT, but without cells, were used as blanks. Untreated cells were considered 100% viable. […]

Test [2] relates to PC3 human prostate cancer cells. Nature of the test: In vitro cytotoxicity MTT assay, GRP expressing cells. Conditions: PC-3, 24 hour incubation, based on total weight of nanoconjugate, read-out: IC50, Nanoconjugate Conc. The format is cell-based. The protocol:
as §1
In vitro Cytotoxicity Assay: In vitro cytotoxicity evaluation of NP1-DOX and NP2-DOX with respective controls such as NP1, NP2, free doxorubicin was performed on GRP expressing and non-expressing cancer cells, PC3 and MDA-MB-231, respectively. The cytotoxicity evaluation was performed in triplicates and the protocol was followed as described by the manufacturer. […] The plates were kept for 2 hours in dark at 25° C. to dissolve all crystals, and the intensity of developed color was measured by micro plate reader (Epoch, BioTek, USA) operating at 570 nm wavelength. […]

`COc1cccc2c1C(=O)c1c(O)c3c(c(O)c1C2=O)C[C@@](O)(C(=O)CO)C[C@@H]3O[C@H]1C[C@H](N)[C@H](O)[C@H](C)O1` [Doxorubicin]: the half-inhibitory concentration (IC50) in test [1] (24 hour incubation, MTT, based on total weight of nanoconjugate, read-out: IC50, Nanoconjugate Conc.) was over 10 µg/mL; in test [1] (in terms of doxorubicin loaded (0.53 μg/mg NP1-DOX, 0.3 μg/mg NP2-DOX), read-out: IC50, Doxorubicin Conc.), over 10 µg/mL; in test [2] it was 9.5 µg/mL (≈ 17.5 µM). Besides, the “IC50, Nanoconjugate Conc.” value in test [1] (24 hour incubation, MTT, based on total weight of nanoconjugate) is over 10 µg/mL.
